# Experimental data published in patent US4272437A, “Antibacterial agents, and 4-thio azetidinone intermediates” (priority 1979, dated 1981).
# Where two headings read alike, the source gives them in different places.
# Tests used:
# [1] = system: E. coli A-15119; assay: MIC, tube dilution, Escherichia coli A15119; assay type: cell-based; conditions: Escherichia coli, A15119, E. coli A15119; overnight 37° C.; read-out: Minimum Inhibitory Concentration (M.I.C.)
# Excerpt: (§1) Representative compounds of the present invention were subjected to in vitro antibiotic screening against a variety of microorganisms.
# [2] = system: Ps. aeruginosa A-21213; assay: MIC, tube dilution, Pseudomonas aeruginosa A21213; assay type: cell-based; conditions: Pseudomonas aeruginosa A21213; overnight 37° C.; read-out: Minimum Inhibitory Concentration (M.I.C.)
# Excerpt: as §1
# [3] = system: Proteus mirabilis A9900; assay: In vivo protection of mice, lethal infection with Proteus mirabilis A9900; conditions: IM, 2 treatments, 1.3 × 10^7 organisms, read-out: PD50
# Experimental: (§2) Representative compounds of the present invention were also tested in vivo in mice and their PD50 (dose of compound in mg/kg required to protect 50% of the treated mice against an otherwise lethal infection of a micro-organism) values determined with respect to the test organisms shown below.
# [4] = system: S. pyogenes A9604; assay: In vivo protection of mice, lethal infection with S. pyogenes A9604; conditions: Streptococcus pyogenes, A9604, im, 2 treatments, read-out: PD50
# Experimental: as §2
compound,measurement,setting,value
"NCCCCC1=C(C(=O)O)N2C(=O)CC2S1 (centres unmarked) [Example 73, 2-(4'-Aminobutyl)-penem-3-carboxylic Acid]",MIC,[1],8 µg/mL
same,MIC,[2],> 125 µg/mL
same,ED50,[3],> 100 mg/kg
same,ED50,[4]; 1.2 × 10^3 organisms,0.89 mg/kg
same,ED50,[4]; 8 × 10^3 organisms,0.51 mg/kg
